Legend:
[1] = IV and PO single dose pharmacokinetic studies in SD rats; type: in vivo; conditions: Sprague-Dawley, rat, plasma, male SD rats, oral gavage 20 mg/kg vs IV bolus 2 mg/kg
Procedure: The pharmacokinetics of selected compounds was characterized in male Sprague-Dawley (SD) rats (250-300 g). […] The intravenous (IV) dosing vehicle was 5% ethanol and 95% of 20% 2-hydroxypropyl β-cyclodextrin in water. The oral dosing vehicle was 33% of Microemulsion Preconcentrate #5 (a lipid based self-emulsifying drug delivery system, SEDDS) and 67% of 50 mM citrate buffer (final pH 3.6).
Serial blood samples (approximately 0.3 mL each) were collected from jugular vein or other suitable vein at specified time points. For the IV dosing group, the blood samples were collected predose and at 0.08, 0.25, 0.50, 1, 3, 6, 8, and 24 hours after the start of dosing. For the oral group, the blood samples were collected predose and at 0.08, 0.25, 0.50, 1, 3, 6, 8, and 24 hours after dosing. The blood samples were collected into VACUTAINER™ tubes containing EDTA-K3 as the anti-coagulant and were centrifuged at approximately 4° C. to obtain plasma. The plasma samples were stored at −20° C. until analysis by LC/MS/MS.
A bioanalytical method utilizing high performance liquid chromatography coupled to tandem mass spectrometry (LC/MS/MS) was developed for analysis of the selected compound in rat plasma. Detection was performed using multiple reaction monitoring (MRM); Ions representing the precursor (M+H)^+ species was selected in quadrupole 1 (Q1) and collided with nitrogen gas in the collision cell (Q2) to generate specific product ion, which was subsequently monitored by quadrupole 3 (Q3). Standard curve and quality control samples were prepared in male rat plasma and processed in the same way as the test samples to generate quantitative data.
Pharmacokinetic parameters were generated using non-compartmental pharmacokinetic analysis (Phoenix WinNonlin, version 6.3). Values below the lower limit of quantification (LLOQ) were assigned a value of zero if predose and treated as missing thereafter. Area under the curve (AUC) was calculated using the linear trapezoidal rule. The oral bioavailability (% F) was determined by comparison of the area under the curve (AUC) of the compound in plasma following oral administration to that generated following intravenous administration.

[2] = system: GT1a replicon encoding NS5A mutation Q30R; assay: Transient replication assay, GT1a replicon with NS5A mutation Q30R; type: cell-based; conditions: Hepatitis C virus, read-out: EC50 1a Q30R
HCV GT 2a-J6 replicon = assay: HCV replicon assay, GT2a chimeric replicon expressing NS5A from GT2a strain J6; type: cell-based; conditions: Hepatitis C virus, 72 h, read-out: EC50 2a J6
Procedure: The activity of compounds was determined against HCV replicons representing genotypes (GT) 1a, 1b, 2a, and 3a. To generate stable Huh-7.5-based cell lines, HCV replicons were engineered to express the Renilla luciferase reporter (hRluc) fused to the neomycin phosphotransferase (Neo) gene. GT2a and GT3a HCV replicons were based on the JFH-1 subgenomic replicon (Kato et al. 2003 Gastroenterology, 125:1808-1817), in which the NS5A gene was replaced with that of strains J6 and S52 (GT2a and G3a, respectively). The activity of compounds against GT1a replicons encoding NS5A mutations (M28T, Q30R, L31M, Y93C, and Y93H) was also determined in a transient replication assay. The parental GT1a and GT2a replicons (pH/SG-Neo(L+I) and pSG-Neo-JFH1, respectively) were licensed from Apath LLC (Saint Louis, Mo.). The parental GT 1b replicon (pFKi389lucubineo_3_3′_ET) was licensed from ReBLikon GmbH (Germany). HCV replicons were constructed by standard molecular biology techniques described below. All replicon constructs were verified by restriction enzyme digestion and DNA sequencing.
The plasmid pSG-hRlucNeo-JFH1 was generated from pSG-Neo-JFH1 (Kato et al. 2003, Gastroentrology 125:1808-1817). A fragment containing the JFH-1 5′ NTR—hRluc-Neo gene and two unique restriction sites (AgeI and PmeI) was synthesized (Integrated DNA Technologies, Coralville, Iowa). The resulting synthetic plasmid was digested with AgeI and PmeI and the excised fragment (5′NTR-hRluc-Neo) was ligated into pSG-Neo-JFH1 digested with the same enzymes to generate pSG-hRlucNeo-JFH1. To allow expression of heterologous NS5A sequences, an NS5A shuttle vector was generated from pSG-Neo-JFH1, in which the entire coding sequence of NS5A plus the first eight codons of NS5B were replaced with an AfeI restriction site. This was done by Infusion cloning (Clontech, Mountain View, Calif.) from two PCR products that were generated using pSG-Neo-JFH1 as a template and the following primer pairs:
Underlined sequences denote regions of overlap necessary for Infusion cloning. Purified PCR products were cloned directly into an NsiI/SnaBI digested pSG-Neo-JFH1 following the manufacturer's instructions to generate pSG-Neo-JFH1-5Ashuttle. The 2023 base pair AgeI/PmeI fragment from pSG-hRlucNeo-JFH1 was then ligated into pSG-Neo-JFH1-5Ashuttle to generate pSG-hRlucNeo-JFH1-5Ashuttle. To generate the 2a-2a-(J6) and 2a-3a-(S52) NS5A chimeric replicons, the full length NS5A sequences from GT2a strain J6 (accession AF177036) and GT3a strain S52 (accession GU814263), with the addition of the first eight codons of JFH-1 NS5B (5′-TCCATGTCATACTCCTGGACCGGG-3′), were synthesized by GeneArt (Life Technologies, Carlsbad Calif.). J6 and S52 NS5A sequences were then PCR amplified from the synthetic clones using the appropriate forward primer:
Underlined sequences denote regions of overlap with pSG-hRlucNeo-JFH1-5Ashuttle necessary for Infusion cloning. Purified PCR products were directly cloned into AfeI-digested shuttle vector by Infusion cloning following the manufacturer's instructions.
Stable HCV replicon cell lines were grown in complete media (Dulbecco's modified Eagle medium [DMEM], 2 mM L-glutamine, 0.1 mM essential amino acids, 1 mM sodium pyruvate, 10% heat inactivated fetal bovine serum) with the addition 500 μg/ml […] (G418). Huh7-lunet cells were maintained in the same medium without the addition of G418. Cells were routinely passaged at a dilution of 1:4 two times a week. The assay medium for both luciferase reporter HCV replicon and cytotoxicity assays used phenol red-free DMEM and lacked G418. For each stable replicon assay, a sixteen point half-log dilution series of compound was stamped (0.5 ul compound per well) into three replica 384-well plates, to which cells were added directly (4000 cells/well). […]

SMILES	bioavailability [1] [%]	EC50 [2] [pM]	EC50 (HCV GT 2a-J6 replicon) [pM]
COC(=O)N[C@H](C(=O)N1[C@H](c2nc3ccc4cc(-c5ccc(-c6cnc([C@@H]7C[C@@]8(CCCOC8)CN7C(=O)[C@@H](NC(=O)OC)C7C[C@@H](C)O[C@H](C)C7)[nH]6)cc5)ccc4c3[nH]2)C[C@@H]2CCCC[C@@H]21)C(C)C (stereo in doubt) [Compound 38]	12.4	2	90
COC(=O)N[C@H](C(=O)N1C[C@]2(CCCOC2)C[C@H]1c1nc2ccc3cc(-c4ccc(-c5cnc([C@@H]6C[C@H]7C[C@H]7N6C(=O)[C@@H](NC(=O)OC)C(C)C)[nH]5)cc4)ccc3c2[nH]1)C(C)C [Compound 5]	12.2	50	3000
COC(=O)N[C@H](C(=O)N1C[C@]2(CCCOC2)C[C@H]1c1nc2ccc3cc(-c4ccc5c(ccc6nc([C@@H]7C[C@H]8C[C@H]8N7C(=O)[C@@H](NC(=O)OC)C(C)C)[nH]c65)c4)ccc3c2[nH]1)C(C)C [Compound 6]	3.5	40	70
COC(=O)N[C@H](C(=O)N1CC2(CC2)C[C@H]1c1nc2ccc3cc(-c4ccc5c(ccc6nc([C@@H]7C[C@@]8(CCCOC8)CN7C(=O)[C@@H](NC(=O)OC)C(C)C)[nH]c65)c4)ccc3c2[nH]1)C(C)C [Compound 7]	2.5	30	300
COC(=O)N[C@H](C(=O)N1CC2(CC2)C[C@H]1c1ncc(-c2ccc(-c3ccc4c(ccc5nc([C@@H]6C[C@@]7(CCCOC7)CN6C(=O)[C@@H](NC(=O)OC)C(C)C)[nH]c54)c3)cc2)[nH]1)C(C)C [Compound 8]	4.1	100	8000
COC(=O)N[C@H](C(=O)N1C[C@]2(CCCOC2)C[C@H]1c1nc2ccc3cc(-c4ccc5c(ccc6nc([C@@H]7C[C@@H]8CCC[C@@H]8N7C(=O)[C@@H](NC(=O)OC)C(C)C)[nH]c65)c4)ccc3c2[nH]1)C(C)C [Compound 9]	2.6	10	40
COC(=O)N[C@H](C(=O)N1C[C@]2(CCCOC2)C[C@H]1c1nc2ccc3cc(-c4ccc(-c5cnc([C@@H]6C[C@@H]7CCC[C@@H]7N6C(=O)[C@@H](NC(=O)OC)C(C)C)[nH]5)cc4)ccc3c2[nH]1)C(C)C [Compound 10]	5.7	20	200
COC(=O)N[C@H](C(=O)N1C[C@]2(CCCOC2)C[C@H]1c1ncc(-c2ccc(-c3ccc4c(ccc5nc([C@@H]6C[C@@]7(CCCOC7)CN6C(=O)[C@@H](NC(=O)OC)C(C)C)[nH]c54)c3)cc2)[nH]1)C(C)C [Compound 11]	7.1	50	2000
COC(=O)N[C@H](C(=O)N1C[C@]2(CCCOC2)C[C@H]1c1ncc(-c2ccc(-c3ccc4c(ccc5nc([C@@H]6C[C@H]7C[C@H]7N6C(=O)[C@@H](NC(=O)OC)C(C)C)[nH]c54)c3)cc2)[nH]1)C(C)C [Compound 18]	3.3	50	2000
COC(=O)N[C@H](C(=O)N1C[C@]2(CCCOC2)C[C@H]1c1nc2ccc3cc(-c4ccc5c(ccc6nc([C@@H]7C[C@@H]8C[C@@H]8N7C(=O)[C@@H](NC(=O)OC)C(C)C)[nH]c65)c4)ccc3c2[nH]1)C(C)C [Compound 21]	3.4	100	2000
COC(=O)N[C@H](C(=O)N1C[C@]2(CCCOC2)C[C@H]1c1nc2ccc3cc(-c4ccc(-c5cnc([C@@H]6C[C@@H]7C[C@@H]7N6C(=O)[C@@H](NC(=O)OC)C(C)C)[nH]5)cc4)ccc3c2[nH]1)C(C)C [Compound 22]	9.4	100	6000
COC(=O)N[C@H](C(=O)N1C[C@]2(CCCOC2)C[C@H]1c1nc2ccc3cc(-c4ccc5c(ccc6nc([C@@H]7C[C@@H]8CCCC[C@@H]8N7C(=O)[C@@H](NC(=O)OC)C(C)C)[nH]c65)c4)ccc3c2[nH]1)C(C)C [Compound 23]	5.5	10	50
COC(=O)N[C@H](C(=O)N1C[C@]2(CCCOC2)C[C@H]1c1nc2ccc3cc(-c4ccc(-c5cnc([C@@H]6C[C@@H]7CCCC[C@@H]7N6C(=O)[C@@H](NC(=O)OC)C(C)C)[nH]5)cc4)ccc3c2[nH]1)C(C)C [Compound 24]	7.9	20	300
COC(=O)N[C@H](C(=O)N1C[C@]2(CCCOC2)C[C@H]1c1ncc(-c2ccc(-c3ccc4c(ccc5nc([C@@H]6CC7(CC7)CN6C(=O)[C@@H](NC(=O)OC)C(C)C)[nH]c54)c3)cc2)[nH]1)C(C)C [Compound 28]	7.2	60	13000
COC(=O)N[C@H](C(=O)N1C[C@]2(CCCOC2)C[C@H]1c1ncc(-c2ccc(-c3ccc4c(ccc5nc([C@@H]6C[C@@H]7CCCC[C@@H]7N6C(=O)[C@@H](NC(=O)OC)C(C)C)[nH]c54)c3)cc2)[nH]1)C(C)C [Compound 29]	17.1	10	2000
COC(=O)N[C@H](C(=O)N1C[C@]2(CCCOC2)C[C@H]1c1nc2ccc3cc(-c4ccc5c(ccc6nc([C@@H]7C[C@@]8(CCCOC8)CN7C(=O)[C@@H](NC(=O)OC)C(C)C)[nH]c65)c4)ccc3c2[nH]1)C(C)C [Compound 31]	3.8	20	300
COC(=O)N[C@H](C(=O)N1C[C@]2(CCCOC2)C[C@H]1c1ncc(-c2ccc(-c3ccc(-c4cnc([C@@H]5C[C@@H]6CCCC[C@@H]6N5C(=O)[C@@H](NC(=O)OC)C(C)C)[nH]4)cc3)cc2)[nH]1)C(C)C [Compound 32]	24.1	40	2000
COC(=O)N[C@H](C(=O)N1C[C@]2(CCCOC2)C[C@H]1c1nc2ccc3cc(-c4ccc(-c5cnc([C@@H]6C[C@@H]7COC[C@@H]7N6C(=O)[C@@H](NC(=O)OC)C(C)C)[nH]5)cc4)ccc3c2[nH]1)C(C)C [Compound 34]	2.1	20	700

From patent US10407445B2, “Hepatitis C virus inhibitors” (ENANTA PHARMACEUTICALS, INC., priority 2013, dated 2019)
